Test: gradient 5% acetonitrile 3 min, to 50% in 2 min, to 85% in 15 min, held 3 min, 100 µL/min
Conditions: column: Zorbax Extend-C18 2.1 x 50 mm; eluents: water / acetonitrile, 0.1% formic acid
Method in brief: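 A Zorbax Extend-C18 column (2.1 × 50 mm, 1.8 μm) run at 100 μL/min with water and acetonitrile, both containing 0.1% formic acid, separated mixtures of ~100 pure standards. The HPLC was coupled to a quadrupole time-of-flight mass spectrometer operated in positive and negative ionization mode, with dead and dwell volumes of 40 μL and 900 μL. Each retention time was taken from a computationally picked adduct peak that was then manually inspected.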

Row | SMILES | RP-LC retention time [s]
1 | O=C(NCc1csc(-c2cccs2)n1)C1CCN(C(=O)COc2ccccc2)CC1 | 770
2 | CCNc1nc(C)cc(N2CCN(C(=O)Nc3cc(OC)cc(OC)c3)CC2)n1 | 657
3 | O=C(CSc1nccn1-c1cccc(Cl)c1)Nc1ccccc1F | 841
4 | COc1cc(C)c(C)cc1S(=O)(=O)NCC1(CO)CC1 | 704
5 | COC(=O)c1ccc(NC(=O)Cn2nc3nc(N4CCCC(C)C4)ccn3c2=O)cc1 (stereo not drawn) | 774
6 | Cc1ccccc1S(=O)(=O)N1CCC2(CC1)CC(OCc1ccccc1)CCO2 (stereo not drawn) | 1210
7 | O=C(c1ccc(S(=O)(=O)c2ccc(Cl)cc2)s1)N1CCN(c2ccccn2)CC1 | 702
8 | Cc1oc2ccn(Cc3ccc(F)cc3)c(=O)c2c1C(=O)N1CCCCC1 | 834
9 | Cc1ccc(NC(=O)Cn2nc3c(N4CCCCCC4)nccn3c2=O)c(C)c1 | 714
10 | CCc1nc2cc(N3CCC(C(=O)NCc4cccc(F)c4)CC3)cnc2nc1CC | 840
11 | Cc1nnc2ccc(N3CCC(C(=O)NCCCN4CCN(c5ccc(F)cc5)CC4)CC3)nn12 | 838
12 | CC(C)CNC(=O)CCn1c(=O)c2ccccc2n2c(=O)n(Cc3ccccc3)nc12 | 882
13 | CCNC(=O)C1CCN(C2=NS(=O)(=O)C(c3ccc(C(C)C)cc3)=C2C)CC1 | 812
14 | Cc1cc2c(=O)n(CC(=O)Nc3ccc(F)cc3Cl)ccc2s1 | 812
15 | CCOc1cc(=O)n2c(c1C(=O)OCc1ccccc1F)CCCCC2 | 914
16 | Cc1cc2[nH]c(C(=O)Nc3cc(F)cc(F)c3)c(CN3CCOCC3)c2s1 | 738
17 | CCCCS(=O)(=O)c1cc2c(cc1NC(=O)Cc1cccc(F)c1)n(C)c(=O)n2C | 855
18 | O=C(NCc1noc(C2CCCC2)n1)C1CCCCC1 | 811
19 | COc1ccc(NC(=O)Cn2c(N3CCCC3)nc(C)cc2=O)cc1OC | 601
20 | O=C(NCC1CC(=O)N(c2ccc3c(c2)OCO3)C1)C1CC1 (stereo not drawn) | 606
21 | CC(C)(NC(=O)c1cc(Cl)c2ccccc2c1O)C(=O)O | 1010

Row | SMILES | RP-LC retention time [s]
22 | CCc1noc(C2(NC(=O)/C=C/c3ccccc3)CCCCC2)n1 | 961
23 | CSc1ccc(CNC(=O)C2CCCN(c3ccc(=O)n(-c4cccc(F)c4)n3)C2)cc1 (stereo not drawn) | 888
24 | CCCCN1CCN(C(=O)CCc2cc3ccc(C)cc3[nH]c2=O)CC1 | 628
25 | O=C1C(N2CCN(S(=O)(=O)c3ccccc3Cl)CC2)CCN1CCc1ccccc1 (stereo not drawn) | 672
26 | CCN(CCN(C)C)C(=O)c1cc2c(s1)N(CC)CCCC2 | 599
27 | CCc1cc(=O)n(CC(=O)Nc2cccc(C(C)C)c2)c(N2CCOCC2)n1 | 829
28 | COc1cccc(-c2noc(C3CCCN3C(=O)C3CCC3)n2)c1 (stereo not drawn) | 912
29 | Cc1ccsc1C(=O)N1CCc2nn(C)c(=O)n2CC1 | 610
30 | COc1ccc(C(=O)N2C[C@@H](Oc3cccnc3)C[C@H]2C(=O)NC2CC2)c(OC)n1 | 602
31 | O=C(CN1CCN(Cc2ccc(F)cc2)C1=O)NCc1ccc(N2CCCC2)cc1 | 761
32 | O=C(Nc1ccc(OC(F)(F)F)cc1)C1CCCN(C(=O)c2cc(-c3ccncc3)n[nH]2)C1 (stereo not drawn) | 692
33 | CC(Cc1ccco1)NC(=O)c1cc(S(=O)(=O)N2CCCCC2)ccc1Cl (stereo not drawn) | 967
34 | O=C(C1CCCCC1)N1CCN(c2nnc3ccc(C(F)(F)F)cn23)CC1 | 817
35 | O=C(CSc1nccc(N2CCC(Cc3ccccc3)CC2)n1)NCCCc1ccccc1 | 906
36 | CCN1C(=O)C(CC(=O)N2CCCC2)Sc2ncccc21 (stereo not drawn) | 654
37 | O=C(NC1CCCCC1)C1CCCN(c2ccncc2)C1 (stereo not drawn) | 604
38 | CC(=O)NCCc1csc(C2CCCN(C(=O)C3(c4ccccc4)CC3)C2)n1 (stereo not drawn) | 705
39 | O=C(NCCc1ccccc1)N1CCCC(Cn2cnc3cccnc32)C1 (stereo not drawn) | 635
40 | CC(C)N1CCn2c(nc3cc(C(=O)NC4CCCCCC4)ccc32)C1=O | 750
41 | CCOC(=O)C1CCN(C(=O)CCc2cc3cc(OC)ccc3[nH]c2=O)CC1 | 701

Next, values leading:

Row | RP-LC retention time [s] | SMILES
42 | 1060 | COc1ccc(-c2ncc3c(n2)CCN(S(=O)(=O)c2ccc(F)c(F)c2)C3)cc1
43 | 907 | Cc1ccc(C(C)NC(=O)Cn2cc(-c3noc(-c4ccc(F)cc4)n3)nc2C)cc1 (stereo not drawn)
44 | 949 | COc1ccc(-n2c(=O)c3sccc3n(Cc3nc(-c4cccc(OC)c4)no3)c2=O)cc1
45 | 642 | C[C@@H]1CCNC(=O)c2cc3ccc(C(=O)Nc4nc5ccccc5n4CCCN(C)C)cc3n21
46 | 893 | COc1ccc(OCC(=O)NCc2cc(-c3cc4ccccc4o3)on2)cc1
47 | 716 | c1ccc(CC2CCN(Cc3nc(-c4ccc(N5CCOCC5)nc4)no3)CC2)cc1
48 | 691 | O=C(CSc1nnc2sc3ccccc3n12)Nc1ccc2c(c1)OCO2
49 | 610 | CCN(CCN(C)C)c1ccc(C(=O)O)cc1NS(=O)(=O)c1ccccc1
50 | 606 | COc1ccccc1N1CCN(Cc2nc3nc(C)cc(N4CCCC4)n3n2)CC1
51 | 780 | COc1ccc(-c2cc(C(F)(F)F)n3ncc(C(=O)NCc4cn(C)nc4C)c3n2)cc1OC
52 | 752 | COc1ccccc1N1CC(c2nc3ccccc3n2CC(=O)N(C(C)C)C(C)C)CC1=O (stereo not drawn)
53 | 1060 | CCc1ccc(C(C)NS(=O)(=O)c2c(C)c(-c3nnc(C4CCC4)o3)n(C)c2C)cc1 (stereo not drawn)
54 | 890 | Cc1nc(-c2ccc(N3CCN(C(=O)c4cc(F)ccc4F)CC3)nc2)sc1C
55 | 842 | Cc1ccc(-c2nnc(Cc3nc(-c4ccccc4C)no3)o2)cc1C
56 | 740 | O=C(Nc1nnc(-c2ccc(Br)o2)o1)c1ccc(F)cc1F
57 | 842 | CC(C)(C)c1ccc2oc(CN3CCN(C(=O)NCc4ccccc4)CC3)nc2c1
58 | 1010 | COc1cc(-c2noc(Cc3nnc(-c4ccc(C)c(C)c4)o3)n2)cc(OC)c1OC
59 | 653 | O=C(O)c1cnc(-c2ccccc2)nc1-c1ccncc1
60 | 847 | Cc1noc(C)c1S(=O)(=O)NCC(c1cccs1)S(=O)(=O)c1ccc(F)cc1 (stereo not drawn)
61 | 857 | COCc1nnc(-c2cc(C)cc(C)c2)o1
62 | 611 | Cc1ccc(CN2CC(Cn3c(C)cnc3-c3ccncc3)C2)o1
63 | 725 | COc1ccc(OC)c(NC(=O)COc2nc(C)nc3ccccc23)c1
64 | 698 | Cc1cc(=O)n(CC(=O)NCc2cccs2)c(N(C)Cc2ccccc2)n1
65 | 1150 | O=c1c2cnn(-c3ccc(Br)cc3)c2ncn1Cc1nc(-c2ccc(F)cc2)no1

Row | RP-LC retention time [s] | SMILES
66 | 811 | CN1C(=O)C2(CCN(C(=O)c3cccc(Cl)c3)C2)c2ccccc21 (stereo not drawn)
67 | 654 | Cc1nc2cccnc2n1CC1CCCN(S(=O)(=O)Cc2ccccc2)C1 (stereo not drawn)
68 | 833 | CCn1c(=O)c(C)nc2cc(C(=O)NCCc3c[nH]c4ccc(Cl)cc34)ccc21
69 | 800 | CC(C)c1ccc(Nc2c(-c3ccccc3O)nc3ncccn23)cc1
70 | 664 | Cc1cccc2nc(-c3ccc(N4CCOCC4)cc3)c(Nc3ccc4c(c3)OCCO4)n12
71 | 770 | C=CCNC(=O)N1CCCN(C2=NS(=O)(=O)C(c3ccc(C)c(C)c3)=C2C)CC1
72 | 1080 | Cc1ccc(Oc2nccn3c(=O)n(CC(=O)NC(C)CCc4ccccc4)nc23)cc1 (stereo not drawn)
73 | 988 | Cn1c(C(=O)N2CCCc3ccccc32)cc2c(=O)oc3ccccc3c21
74 | 1150 | Cc1nn(-c2nc(-c3ccc(F)cc3)cs2)c(C)c1CC(=O)Nc1ccc(F)cc1
75 | 985 | CCN(C(=O)Cn1nc2cc(-c3ccccc3)nc(C)n2c1=O)c1ccccc1
76 | 1090 | CCOc1ccccc1-c1noc(Cn2c(=O)n(Cc3ccccc3)c(=O)c3sccc32)n1
77 | 1040 | O=C(NCc1nc2ccccc2c(=O)n1-c1ccc(F)cc1)Nc1ccc(Cl)c(C(F)(F)F)c1
78 | 742 | CC(=O)N1CCc2cc(N3CC(C(=O)NCc4cc(C)ccc4C)CC3=O)ccc21 (stereo not drawn)
79 | 1180 | COc1ccc(CNC(=O)Nc2ccc(-c3nc(-c4ccc(C)cc4C)co3)cc2)cc1
80 | 797 | Cc1ccc(-c2nnc(CC(=O)NC3CCCC3)o2)cc1
81 | 897 | CSc1ccc(NC(=O)NC2CCN(c3ccc(C)c(C)c3)C2=O)cc1 (stereo not drawn)
82 | 673 | Cc1ccc(NC(=O)Nc2ccc3nnc(C)n3c2)cc1
83 | 765 | CC(=O)c1cccc(NC(=O)CCc2c(C)nn(-c3cc(N4CCCC4)ncn3)c2C)c1
84 | 790 | CCc1noc(NC(C)=O)c1-c1ccc(OC)c(S(=O)(=O)Nc2c(C)cccc2C)c1
85 | 779 | COc1cccc(C(=O)NCc2nn(C)c3ccccc23)c1
86 | 813 | Cc1cccc(NS(=O)(=O)c2ccc3c(c2)CCCC(=O)N3)c1C
87 | 765 | COc1ccc(C2CC(=O)c3c(C)nc(N4CCN(c5ccccn5)CC4)nc3C2)c(OC)c1 (stereo not drawn)
88 | 983 | COc1ccc(-c2cc3n(n2)CCCN(S(=O)(=O)CCc2ccccc2)C3)cc1
